Ends that are not written are not given here.
Assays:
HMB2 melanoma cells = test: H2O2-induced cell death in HMB2 cells, cell viability by MTT absorbance; type: cell-based, human; conditions: 20 μM polypeptide; 50 μM H2O2 two hours later; viability after 24 hours; versus H2O2-treated cells in the absence of polypeptide; p<0.05; FIG. 1
Experimental: FIG. 1 is a graph showing the percentage of cell viability measured by MTT absorbance in HMB2 melanoma cells that were treated with a polypeptide comprising SEQ ID NO: 1 and SEQ ID NO: 2 (TAT-peptide) and H2O2.
To determine the effect of the administration of a polypeptide comprising SEQ ID NO: 1 on H2O2-induced cell death, HMB2 cells were administered 20 μM of the polypeptide. Two hours following the polypeptide administration, the cells were treated with 50 μM of H2O2. After 24 hours, the cell viability was quantified using MTT absorbance.

[1] = tested on: MIA-expressing HMB2 human metastatic melanoma cells; test: Entry of FITC-labeled polypeptide into HMB2 cells (phase contrast and image capture); type: cell-based; conditions: 10 μM FITC-labeled polypeptide, 2.5 hours after addition
Experimental: The ability of a polypeptide comprising SEQ ID NO: 4 to enter and sensitize MIA-expressing HMB2 human metastatic melanoma cells to oxidative stress-induced death was examined. Cells were treated with 10 μM FITC-labeled polypeptide, followed by phase contrast and image capture.

Substance	sensitivity of H2O2-treated cells to H2O2-death (cell viability, MTT absorbance) (HMB2 melanoma cells)	transduction of cells with the peptide [1]
polypeptide comprising SEQ ID NO: 1: Polypeptide comprising residues 41-60 of the p66shc CH2 domain (SEQ ID NO: 1) and HIV TAT (SEQ ID NO: 2) (SLGPILPPLPGDDSPTTLCSYGRKKRRQRR)	significantly increased	
polypeptide comprising SEQ ID NO: 4: Polypeptide comprising a BRR domain (HIV TAT), spacer and CH2 domain portion of p66shc; FITC-labeled in the test (YGRKKRRQRRGGGSLGPILPPLPGDDSPTTLCS; also: FITC label, position not given here)		the majority of the cells were transduced

Reference: patent US20080248574A1, “ANTAGONISTS OF THE INTERACTION OF MELANOMA INHIBITORY ACTIVITY (MIA) AND P66SHC” (University of Pittsburgh - Of the Commonwealth System of …, priority 2007, published 2008)
